Results taken from patent publication US20180148418A1, “AMIDO-SUBSTITUTED CYCLOHEXANE DERIVATIVES” (Bayer Pharma Aktiengesellschaft, priority 2015, published 2018).
Counter-ions that a name gives are not always drawn.

Legend:
TNKS2 = target: T1, TNKS2 (Homo sapiens, UniProt Q9H2K2); assay: TNKS2 Assay B (auto-parsylation, [3H]-NAD+ SPA); type: biochemical; conditions: 6 nM TNKS2, auto-parsylation, over night at room temperature
T1 construct: purchased BPS Bioscience, San Diego, USA 80572 (TNKS2 Histone Ribosylation Assay Kit)
T1 sequence (Q9H2K2 1-1166): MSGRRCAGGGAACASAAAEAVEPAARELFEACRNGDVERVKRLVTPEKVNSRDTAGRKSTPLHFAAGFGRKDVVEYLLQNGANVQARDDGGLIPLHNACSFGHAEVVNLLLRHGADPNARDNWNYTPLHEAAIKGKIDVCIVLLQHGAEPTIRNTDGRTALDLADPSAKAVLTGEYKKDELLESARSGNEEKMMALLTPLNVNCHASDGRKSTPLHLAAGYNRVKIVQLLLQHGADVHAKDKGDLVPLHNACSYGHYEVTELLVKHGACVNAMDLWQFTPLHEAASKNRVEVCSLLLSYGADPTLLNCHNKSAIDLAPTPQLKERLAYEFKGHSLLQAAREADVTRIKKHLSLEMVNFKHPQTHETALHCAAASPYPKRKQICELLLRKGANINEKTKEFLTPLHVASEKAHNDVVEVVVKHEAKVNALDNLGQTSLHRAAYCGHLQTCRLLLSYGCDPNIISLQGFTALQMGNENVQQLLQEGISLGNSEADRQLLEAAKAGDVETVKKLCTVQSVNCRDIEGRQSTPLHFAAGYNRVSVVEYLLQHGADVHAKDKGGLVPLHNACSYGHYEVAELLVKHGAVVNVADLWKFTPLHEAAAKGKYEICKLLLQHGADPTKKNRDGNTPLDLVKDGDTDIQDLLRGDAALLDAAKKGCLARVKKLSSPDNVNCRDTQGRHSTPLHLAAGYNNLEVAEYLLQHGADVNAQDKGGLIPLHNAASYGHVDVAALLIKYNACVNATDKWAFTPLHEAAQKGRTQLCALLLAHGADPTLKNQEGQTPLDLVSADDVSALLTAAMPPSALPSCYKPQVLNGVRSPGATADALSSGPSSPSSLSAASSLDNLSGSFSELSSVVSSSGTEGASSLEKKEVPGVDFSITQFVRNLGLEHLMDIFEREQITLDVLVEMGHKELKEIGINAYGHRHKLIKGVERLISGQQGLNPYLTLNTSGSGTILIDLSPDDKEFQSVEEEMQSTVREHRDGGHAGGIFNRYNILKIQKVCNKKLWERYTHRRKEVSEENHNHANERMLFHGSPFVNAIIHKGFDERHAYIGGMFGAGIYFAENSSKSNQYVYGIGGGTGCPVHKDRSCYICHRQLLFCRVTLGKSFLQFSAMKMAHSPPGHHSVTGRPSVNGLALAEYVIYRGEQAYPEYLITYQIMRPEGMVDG

[1] = tested on: HEK293 cells cotransfected with the FOP control vector; assay: HEK293 FOP assay (control reporter with non-functional TCF elements); type: cell-based; conditions: Homo sapiens, 16 hours
Outline: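 Stable HEK293 line carrying FOP control reporter (randomized non-functional TCF sites, with pcDNA3), Geneticin-selected, plated 24 h before assay. Stimulated with recombinant human Wnt-3a (2500-5 ng/ml) and compounds 50 μM–15 nM (3.16-fold steps) in CAFTY buffer pH 7.4 with 2 mM Ca2+, 0.01% BSA, run parallel to TOP line.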

IC50 (TNKS2) [nM] | SMILES | IC50 [1] [nM]
6800 | COCC(C)NC(=O)c1nc[nH]c1C(=O)N[C@H]1CC[C@H](C(=O)Nc2cc(N3CCOCC3)ccc2Cl)CC1 (stereo partly drawn) [Example 91, N^5-(trans-4-{[2-chloro-5-(morpholin-4-yl)phenyl]carbamoyl}cyclohexyl)-N^4-(1-methoxypropan-2-yl)-1H-imidazole-4,5-dicarboxamide] | ≥ 50000
100 | CNC(=O)c1[nH]cnc1C(=O)NC1CCC(C(=O)Nc2ccc(F)cc2Cl)CC1C (racemic) [Example 39, N^4-{4-[(2-chloro-4-fluorophenyl)carbamoyl]-2-methylcyclohexyl}-N^5-methyl-1H-imidazole-4,5-dicarboxamide] | 
230 | O=C(NCCN1CCCCC1)c1nc[nH]c1C(=O)N[C@H]1CC[C@H](C(=O)Nc2ccc(F)cc2Cl)CC1 [Example 2, N^5-{trans-4-[(2-chloro-4-fluorophenyl)carbamoyl]cyclohexyl}-N^4-[2-(piperidin-1-yl)ethyl]-1H-imidazole-4,5-dicarboxamide] | ≥ 50000

More lines, now with the values behind:

SMILES | IC50 (TNKS2) [nM] | IC50 [1] [nM]
CNC(C)c1cnc2c(C(=O)N[C@H]3CC[C@H](C(=O)Nc4ccc(F)cc4Cl)CC3)cnn2c1C (stereo partly drawn) [Example 54, N-{trans-4-[(2-chloro-4-fluorophenyl)carbamoyl]cyclohexyl}-7-methyl-6-[1-(methylamino)ethyl]pyrazolo[1,5-a]pyrimidine-3-carboxamide formic acid salt] | 680 | ≥ 50000
Cc1c(C(C)N(C)C)cnc2c(C(=O)N[C@H]3CC[C@H](C(=O)Nc4ccc(F)cc4Cl)CC3)cnn12 (mixture of isomers) [Example 55, N-{trans-4-[(2-chloro-4-fluorophenyl)carbamoyl]cyclohexyl}-6-[1-(dimethylamino)ethyl]-7-methylpyrazolo[1,5-a]pyrimidine-3-carboxamide formic acid salt] | 490 | ≥ 50000
